Source: patent US9607202B2, “Methods of generating trophectoderm and neurectoderm from human embryonic stem cells” (UNIVERSITY OF PITTSBURGH—OF THE COMMONWEALTH SYSTEM OF …, priority 2009, dated 2017)

Columns and labels:
Type in all cases: cell-based, human
hESCs [1] = experiment: TSA-mediated inhibition of noggin induction of neurectoderm differentiation
Description: The hESCs were grown and passaged via standard collagenase methods and passaged into two ibidi plastic 8-well slides. All hESCs were plated onto feederless plates with Stempro Media for 24 hours. hESCs were 50% confluent at time of passage and split 1:5.
All plates were fed with Neural Differentiation Media (1:1 mix of D-MEM/F12 supplemented with 1×N2 and Neurobasal medium supplemented with B27 (all from Gibco/Invitrogen); supplemented with 100 ng/ml mouse recombinant noggin (R & D systems), 50 U/ml penicillin/50 μg/ml streptomycin (Invitrogen) and 2 mML-glutamine (Invitrogen)) starting at day 0 (100 ng/mL noggin in N2B/27 with media changed daily). Six wells in each of two plates was treated with TSA (0-25 nM daily beginning 24 hours s/p plating hESC
Colonies were stained with HDACI and Nestin. These proteins co-stained in a peri-nuclear filamentous pattern consistent with previous Nestin distribution. Pax6 expression was negative.

hESC = experiment: TSA toxicity in hESC
hESCs [2] = experiment: HDAC inhibition with TSA on BMP4-induced hESC differentiation in MIM
Description: Though not TE-selective, BMP4 supplementation to MIM was the most robust protocol for hESC differentiation to multiple lineages. To test whether or not TSA caused lineage specific inhibition, this protocol was used to assess HDAC inhibition on hESC differentiation to TE, ME or ExE. […] Thus HDAC inhibition delayed BMP4-induced hESC differentiation in the short-term, without altering lineage selection
96-well Microplates were scanned using the 5 or 10× objective on the ArrayScan V Automated image analysis was performed using the Compartmental Analysis BioApplication using Hoechst for identification of nuclei and various transcription factor antibodies (Table 2). Nuclear-specific fluorescence intensity was determined from approximately 300 single cells per well from 3-6 independent wells to produce a well-average nuclear intensity for each measurement Mean and standard deviation were calculated from multiple wells. Fold change of the mean intensities were normalized against matched unstimulated external controls, usually the pluripotent condition, to divide out differences due to efficiency of antibody-antigen binding and chromophore quantum yield. […] Select conditions are additionally compared in bar graph format to show standard deviations and T-tests.
Colony morphology was quantified by statistical multiresolution analysis of image texture (Mangoubi et al., 2007; Sammak et al., 2008). Image texture is a mathematical measure of the size and sharpness of objects in the image, which is illustrated in one dimension by an intensity line profile (FIG. 10). […] Therefore, we employ texture analysis as an integrated measure of colony morphology. Texture was measured using wavelet analysis (Do and Vetterli, 2002), a generalization of Fourier analysis, to decompose colony texture in phase contrast images (4× objective, Nikon TMS microscope), producing a joint probability density function for the wavelet coefficients from various scales. Different culture conditions can be distinguished as belonging to distinct classes. Each class is thus represented by a probability density function, and quantitative comparative features for classifying and statistically distinguishing colony textures are extracted from the density functions. One such feature is the Kullback-Leibler (KL) distance (Do and Vetterli, 2002). […] Specifically the KL distance between a pair of colonies from the same class is shorter than a pair from different classes.

[3] = tested on: pluripotent hESC, line H7; experiment: TSA or HDAC siRNA on pluripotent hESC in mTeSR: developmental and epigenetic markers (Arrayscan); settings: TSA 0.5, 1.0 and 2.0 nM for 2 days
Description: In all panels of FIG. 11, pluripotent hESC, line H7, were cultured in mTeSR media were plated in 96 well plates, fixed and immunostained for developmental and epigenetic markers, and the intensity was measured using the Thermo Fisher Arrayscan. 300 cells per well, 3 wells per condition were measured and standard deviations (error bars) and T Tests were evaluated. […] Anti-HDAC3 antibodies confirms that siRNA directed against HDAC3, but not HDAC1, HDAC2, or control knocked down the concentration of HDAC3 (P<0.05, data not background subtracted). […] This protein changes colony texture by producing smooth, homogeneous colonies. […] This marker is selective for high cells with high levels of pluripotency.

[4] = 2 nM TSA in MIM plus BMP4, 48 hours, relative to BMP4 alone

**Q.** Which results are given for `CC(/C=C/C(=O)NO)=C\[C@@H](C)C(=O)c1ccc(N(C)C)cc1` [TSA, trichostatin A]?
**A.** molar sensitivity in hESC (hESCs [1]): 1 nM; HDAC (HDAC1 expression) (hESCs [1]; 1.0 nM TSA): reduces; expression of nestin (hESCs [1]; 1.0 nM TSA): reduces; methylation of histone H3 on lysine 9 (hESCs [1]; 1.0 nM TSA): reduces; effect on cell-cell adhesion and cell motility (hESCs [1]; 5 nM TSA, noggin differentiation media, 48 hrs): reduced cell-cell adhesion and increased cell motility; longer-term formation of neurectoderm (hESCs [1]; TSA treatment for 4 or more days): did not inhibit longer-term formation of neurectoderm; neurectoderm formation (hESCs [1]; TSA treatment for 2 days at the initiation of differentiation): inhibited neurectoderm formation; highest concentration without toxic effects (hESC): 1 nM; CDX2 expression (hESCs [2]; [4]): decrease; GATA6 expression (hESCs [2]; [4]): decrease; OCT4 level (hESCs [2]; [4]): significant OCT4 level increase; brachyury expression (hESCs [2]; [4]): decrease; expression of HDAC3 (hESCs [2]; TSA added to MIM with BMP4): significantly reduced; methylation of histone H3K9 (hESCs [2]; TSA added to MIM with BMP4): significantly reduced; BMP4-induced epithelial transformation (colony morphology by texture analysis) (hESCs [2]; TSA in MIM plus BMP4, 48 hours): significantly delayed; DNA methylation on 5'cytosine [3]: decreased; GTCM2 [3]: increased; H3K9me3 [3]: decreased; H3K27me3 [3]: decreased; HDAC3 [3]: significantly reduced; Nanog [3]: increased; histone acetylation on H3K9 [3]: decreased acetylation; increase of colony size [3]: 2 fold; peripheral F-actin [3]: increased; Oct4 ([3]; dose dependent): increased
